Measured values as given in PMC6272399, “Anti-Proliferative Effect and Induction of Apoptosis in Androgen-Independent Human Prostate Cancer Cells by 1,5-Bis(2-hydroxyphenyl)-1,4-pentadiene-3-one” (Molecules, 2015).

Columns and labels:
[1] = tested on: WRL 68 (human epithelial hepatocytes); assay: MTT cytotoxicity assay, normal WRL 68; assay type: cell-based; conditions: WRL68, normal cell line, 72 h treatment, mean ± SD, read-out: EC50 Values (µM) of Compounds on Cell Lines WRL-68
Protocol: Cell viability was determined by the MTT [3-(4,5-dimethylthiazol-2-yl)-2,5-diphenyltetrazolium bromide] assay, as previously described by Mosmann with modifications. Briefly, cells were detached from the tissue culture flask and pelleted by centrifugation at 1000 rpm for 5 min. Then, the density of the viable cells was counted using a haemocytometer. Cells were then plated in a 96-well flat bottom micro-titer plate (Nunc) at a concentration of 10^4 cells/mL and incubated in a 5% CO2 incubator at 37 °C overnight to allow the cells to adhere to the bottom of the wells. After 24 h, the media was aspirated off and replaced with fresh media containing sample compounds (curcumin and curcumin analogues) of seven different concentrations ranging from 1.56 µM–100 µM and incubated at 37 °C, 5% CO2 for 72 h. Separately, the sample compounds were prepared in a stock solution of 50 mM in 100% dimethyl sulfoxide (DMSO, Molecular Biology Grade, Sigma-Aldrich, St. Louis, MO, USA) and diluted in the culture media to a working concentration of 200 µM. Curcumin, the parent compound which was used as the positive control was also prepared in the similar manner. A two-fold serial dilution was done for each sample in triplicates down the columns of the plate, yielding a final volume and concentration of 100 µL in 0.2% DMSO in each wells. Following treatment, 50 µL MTT solutions (0.5 mg/mL in PBS) was added to each well and incubated for another 4 h at 37 °C in a humidified 5% CO2 incubator. The supernatant was replaced with 100 µL of DMSO and the optical density (OD) was measured at 570/650 nm using a micro-plate ELISA reader (Bio-Rad Laboratories, Hercules, CA, USA). The percentage of viable cells was calculated based on the ratio of the corrected absorbance of sample-treated cells to the corrected absorbance of the control (0.2% DMSO-treated cells) multiplied by 100. The percentage of cell viability was determined as follows: % Cell viability= OD of treated cells /OD of control ×100
For each compound tested, the EC50 value was generated from the log dose-response curves for each cell line using the Graphpad Prism version 5.04 for Windows (Graphpad Software, La Jolla, CA, USA). […] Cytotoxicity of each tested compound is expressed as the EC50 value. Based on the EC50 values, selectivity index (SX) value was also determined. Selectivity index is a special parameter applied as a selectivity indicator of tested compounds towards cancer cells. The SX represents the ratio of EC50 value obtained in toxicity testing using the normal cell lines to the EC50 values of the toxicity testing of the cancer cells, and then multiplied by 100. All the compounds were assessed for their potential toxicity against normal, non-cancerous cells. […] The SX values were calculated using the following equation: SX = EC50 (normal cells)/EC50 (cancer cells) × 100

DU 145 cells = assay: Free nucleosome detection (Cell Death Detection ELISA), DU 145; assay type: cell-based, human; conditions: DU 145, 8.4 µM compared with 4.2 and 12.6 µM, all time points
Protocol: To confirm the presence of histone-bound DNA fragments (free nucleosomes) in the prostate cancer cells after the treatment of MS17, Cell Death Detection ELISA^PLUS kit (Roche Diagnostics) was used according to the manufacturer’s protocol. Cells were plated on a bottom flat tissue culture plates at a concentration of 10^5 cells per well and incubated for 24 h to allow the cells to adhere. After overnight incubation, MS17 at various concentrations (EC50, 2 × EC50, 3 × EC50) were added to a final volume of 100 µL per well and further incubated for 24, 48 and 72 h. The plate was centrifuged at 600 rpm at 4 °C for 10 min. The cell pellet containing the apoptotic bodies was resuspended in lysis buffer and incubated for 30 min at room temperature. […] The amount of nucleosomes retained by the POD in the immunocomplex, corresponding to the extent of apoptosis and necrosis, was determined with 2,2'-azinobis-3-ethyl-benzothiazoline-6-sulfonic acid (ABTS) as substrate using a micro-plate ELISA reader at a wavelength of 405/490 nm. The amount of enrichment of mono- and oligonucleosomes released into the cytoplasm was calculated using the following formula: Enrichment factor= Absorbance of sample/Absorbance of control

[2] = tested on: androgen-dependent prostate cancer cells; design: method as in PMID 21796654; conditions: cited from earlier work

O=C(C=Cc1ccccc1O)C=Cc1ccccc1O [MS17, 1,5-bis(2-hydroxyphenyl)-1,4-pentadiene-3-one]
EC50 [1]: 5.5 ± 0.5 µM
nucleosomal fragments (enrichment factor) (DU 145 cells): significant increase in nucleosomal fragments
anti-androgenic effect [2]: exert anti-androgenic effect
